Measured values taken from patent EP0960886B1, “Peptide T and related peptides in the treatment of inflammation, including multiple sclerosis” (priority 1992, dated 1993).
Square brackets hold non-standard residues; d marks the D form. Ends that are not written are not given here. Peptide text beside a SMILES is read from it.

What was measured:
[1] = test system: mouse foetal hippocampal neurons; conditions: cultures of mouse foetal hippocampal neurons; cited from earlier work
[2] = spinal administration to rats; tail-flick latency and tail-shock induced vocalisation; cited from earlier work
LPS = LPS toxicity and survival in mice bearing Meth A ascites tumours (Example 7); type: in vivo; conditions: 100 µg LPS subcutaneously with 1mg analogue
Protocol: Mice bearing Meth A ascites tumours were given 100 µg LPS subcutaneously with either bovine serum albumin (BSA) or peptide T analogue (504 or 505, 1mg). The number of animals showing signs of LPS toxicity (diarrhoea, exudate from the eyes and general level of activity) in each group was recorded at 19, 24 and 41 hours after injection. At the completion of the experiment the number of surviving animals was recorded (see Table II below) and the survivors bled for later determination of TNF, IL-1, IL-6 and RNI levels.

human neutrophils [3] = assay: TNF-induced neutrophil chemiluminescence (lucigenin-dependent); type: cell-based; conditions: 500-1000U/ml TNF
Protocol: (§1) Neutrophils. Neutrophils were isolated from whole blood from healthy blood donors. Separation was achieved by the rapid-single-step method of centrifugation of whole blood on FICOLL-HYPAQUE™. These were >99% viable and usually >98% pure.
(§2) Peptides and TNF. TNF was a recombinant product produced in E. coli. Peptide T and analogue 505 (D-Ser-Ser-D-Thr-Thr-D-Thr-Thr-Tyr-D-Thr) were resuspended in Hank's Balanced Salt Solution (HBSS).
(§3) To 100µl of 500-1000U/ml of TNF was added 10µl of peptide and after 5 min 100µl of 1x10^7 neutrophils/ml was added. The cells further incubated at 37°C/20 min and then tested for chemiluminescence activity. In some cases an agonist such as fMLP (10^-7M) was added. Chemiluminescence was measured in a luminometer (LKB). The results for Peptide T are presented in Figure 12 as peak rate of CL release. Lucigenin-dependent chemiluminescence was measured: this represents superoxide measurement. In another set of experiments the effects of analogue 505 on the LPS-induced neutrophil chemiluminescence were examined. In this case the LPS was essentially substituted for the TNF. The concentration of LPS was 0.005µg/ml.

human neutrophils [4] = assay: LPS-induced neutrophil chemiluminescence; type: cell-based; conditions: LPS 0.005µg/ml
Protocol: as §1, §2, §3

Row | Compound | gp120-induced neurotoxicity [1] | analgesia [2] | % mice surviving 41 hours (LPS) | % mice with diarrhoea at 19 hrs (LPS) | % mice with exudate at 19 hrs (LPS) | TNF priming and activation of human neutrophils (human neutrophils [3]) | LPS activation of human neutrophils (human neutrophils [4])
1 | human vasoactive intestinal peptide (HSDAVFTDNYTRLRKQMAVKKYLNSILN; ends and bridges not checked; UniProt P01282 125-152, looked up) [VIP, reference compound] | completely eliminated | produced analgesia |  |  |  |  | 
2 | C[C@H](O)[C@@H](NC(=O)[C@H](Cc1ccc(O)cc1)NC(=O)[C@@H](NC(=O)[C@H](NC(=O)[C@@H](NC(=O)[C@H](NC(=O)[C@H](CO)NC(=O)[C@H](N)CO)[C@H](C)O)[C@@H](C)O)[C@H](C)O)[C@@H](C)O)C(N)=O [analogue 505, D-Ser-Ser-D-Thr-Thr-D-Thr-Thr-Tyr-D-Thr] (H-[dS]S[dT]T[dT]TY[dT]-NH2) |  |  | 100% | 40% | 20% | inhibits TNF priming and activation | inhibits LPS activation
3 | C[C@H](O)[C@@H](NC(=O)[C@H](Cc1ccc(O)cc1)NC(=O)[C@H](CC(N)=O)NC(=O)[C@H](NC(=O)[C@@H](NC(=O)[C@H](NC(=O)[C@H](CO)NC(=O)[C@@H](C)N)[C@H](C)O)[C@@H](C)O)[C@H](C)O)C(N)=O [analogue 504] |  |  | 100% | 40% | 60% |  | 
